Measured values: patent US20260085039A1 (priority 2022, published 2026)
≈ marks a conversion by molar mass, not a printed value. Entries after “also recorded” stand apart in the source; their conditions may differ. Where two headings read alike, the source gives them in different places.

Columns and labels:
[1] = acid for salt screen; cited from earlier work
[2] = Drying studies, form by XRPD after vacuum drying; format: physicochemical; conditions: RT, 1 d
Method: XRPD patterns were collected with a PANalytical X'Pert PRO MPD or Empyrean diffractometer using an incident beam of Cu radiation produced using an Optix long, fine-focus source. An elliptically graded multilayer mirror was used to focus Cu Kα X-ray radiation through the specimen and onto the detector. Prior to the analysis, a silicon specimen (NIST SRM 640f) was analyzed to verify the observed position of the Si (111) peak is consistent with the NIST-certified position. A specimen of the sample was sandwiched between 3-μm-thick films and analyzed in transmission geometry. A beam-stop, short antiscatter extension, and antiscatter knife edge were used to minimize the background generated by air. Soller slits for the incident and diffracted beams were used to minimize broadening from axial divergence. Diffraction patterns were collected using a scanning position-sensitive detector (X'Celerator) located 240 mm from the specimen and Data Collector software v. 5.5.

[3] = Solubility (appearance) and pH in saline; format: physicochemical
[4] = Observation of solubility samples after 1 day ambient storage (discoloration); format: physicochemical
From the text: The solubility estimates were utilized to design experiments for the salt screen.

[5] = Stability in saline by HPLC psilocin peak area over time; conditions: aqueous solution such as saline, 36 hours
[6] = Approximate solubility by solvent aliquot addition, visual inspection, ambient temperature; format: physicochemical
Method: Weighed samples were treated with aliquots of designated solvent at ambient temperature. Complete dissolution of the test material was determined by visual inspection. Solubility was estimated based on the total solvent volume used to provide the complete dissolution. If complete dissolution was achieved by only one aliquot addition, the value is reported as “larger than”; if complete dissolution was not achieved, the value is reported as “less than”. The actual solubility may be greater than the value calculated because of the use of solvent aliquots that were too large or due to a slow rate of dissolution.

O=C(O)C=C(CC(=O)O)C(=O)O [Aconitic acid]
pKa1 [1]: 2.80

O=S(=O)(O)c1ccccc1 [Benzesulfonic acid]
pKa1 [1]: 0.17

CN(C)CCc1c[nH]c2cccc(O)c12.O=C(O)c1ccccc1 [Benzoate Form A]
XRPD Result after drying [2]: maintains the same form; also recorded: Benzoate Form A

O=C1O[C@H]([C@H](O)CO)C(O)=C1O [Erythorbic acid]
pKa1 [1]: 2.1

CCCC(=O)O.CN(C)CCc1c[nH]c2cccc(O)c12 [Psilocin butyrate]
Appearance in solution ([3]; 1.0 mg/mL in saline): Visually soluble, clear solution
pH ([3]; 1.0 mg/mL in saline): 6.281

O=C1CC[C@@H](C(=O)O)N1 [Pyrogluatmic acid]
pKa1 [1]: 3.32

C/C=C/C=C/C(=O)O [Sorbic acid]
pKa1 [1]: 4.75

CN(C)CCc1c[nH]c2cccc(O)c12 [psilocin, 4-hydroxy-N,N-dimethyltryptamine]
Observation after 1 day ambient storage ([4]; ACN): No discoloration
Observation after 1 day ambient storage ([4]; Acetone): No discoloration
Observation after 1 day ambient storage ([4]; Dioxane): No discoloration
Observation after 1 day ambient storage ([4]; EtOAc): No discoloration
Observation after 1 day ambient storage ([4]; EtOH): No discoloration
Observation after 1 day ambient storage ([4]; H20): Discoloration (black suspension)
Observation after 1 day ambient storage ([4]; H20, listed as Psilocin free base): strong discoloration (black)
Observation after 1 day ambient storage ([4]; MeOH): No discoloration
Observation after 1 day ambient storage ([4]; THF): No discoloration
decrease in the amount of psilocin present over time [5]: ≥ 15%
solubility ([6]; ACN, ambient temperature, estimated): 9 mg/mL (≈ 44.1 mM)
solubility ([6]; EtOAc, ambient temperature, estimated): 8 mg/mL (≈ 39.2 mM)
solubility ([6]; ethanol, organic solvent or mixture, thermodynamic from solid, EtOH, ambient temperature, estimated, read-out: Solubility): < 1 mg/mL
solubility ([6]; methanol, organic solvent or mixture, thermodynamic from solid, MeOH, ambient temperature, estimated, read-out: Solubility): < 1 mg/mL
solubility ([6]; organic solvent or mixture, thermodynamic from solid, Acetone, ambient temperature, estimated, read-out: Solubility): 20 mg/mL (≈ 97.9 mM)
solubility ([6]; organic solvent or mixture, thermodynamic from solid, Dioxane, ambient temperature, estimated, read-out: Solubility): 18 mg/mL (≈ 88.1 mM)
solubility ([6]; other organic solvents (not water, not alcohols), organic solvent or mixture, thermodynamic from solid, read-out: Solubility): ≥ 8 mg/mL
solubility ([6]; tetrahydrofuran, organic solvent or mixture, thermodynamic from solid, THF, ambient temperature, estimated, read-out: Solubility): 18 mg/mL (≈ 88.1 mM)
solubility ([6]; water and alcohols): poorly soluble
solubility ([6]; water, thermodynamic from solid, H20, ambient temperature, estimated, read-out: Solubility): < 1 mg/mL
Appearance in solution ([3]; 0.1 mg/mL in saline): Visually soluble, clear solution
pH ([3]; 0.1 mg/mL in saline): 9.053
Appearance in solution ([3]; 1.0 mg/mL in saline): Cloudy solution, not soluble
pH ([3]; 1.0 mg/mL in saline): 9.395
